Article PMC10485820 (European Journal of Pharmaceutical Sciences, 2023)

Key:
[1] = Dissolution profile of HSK7653 tablets at pH 4.5 acetum; type: physicochemical
Description: (§1) The development of the DLM was complex.

[2] = Physicochemical parameters (log P, pKa) from experimental outcomes; details: Measured (in vitro)
Description: as §1

[3] = Stability in human liver microsomes incubation system (unpublished); details: 1 μM, 0.5 mg/mL human liver microsomes
Experimental: (§2) Reactions were stopped by removing the plates from the incubator and mixing the incubation solution with 600 μL of ice-cold stop solution (acetonitrile) at the corresponding sampling time points.

[4] = target: T1, OATP1B1 (Homo sapiens, UniProt Q9Y6L6); assay: Preclinical transporter substrate assessment (unpublished); type: in vitro ADME
T1 sequence (Q9Y6L6 1-691): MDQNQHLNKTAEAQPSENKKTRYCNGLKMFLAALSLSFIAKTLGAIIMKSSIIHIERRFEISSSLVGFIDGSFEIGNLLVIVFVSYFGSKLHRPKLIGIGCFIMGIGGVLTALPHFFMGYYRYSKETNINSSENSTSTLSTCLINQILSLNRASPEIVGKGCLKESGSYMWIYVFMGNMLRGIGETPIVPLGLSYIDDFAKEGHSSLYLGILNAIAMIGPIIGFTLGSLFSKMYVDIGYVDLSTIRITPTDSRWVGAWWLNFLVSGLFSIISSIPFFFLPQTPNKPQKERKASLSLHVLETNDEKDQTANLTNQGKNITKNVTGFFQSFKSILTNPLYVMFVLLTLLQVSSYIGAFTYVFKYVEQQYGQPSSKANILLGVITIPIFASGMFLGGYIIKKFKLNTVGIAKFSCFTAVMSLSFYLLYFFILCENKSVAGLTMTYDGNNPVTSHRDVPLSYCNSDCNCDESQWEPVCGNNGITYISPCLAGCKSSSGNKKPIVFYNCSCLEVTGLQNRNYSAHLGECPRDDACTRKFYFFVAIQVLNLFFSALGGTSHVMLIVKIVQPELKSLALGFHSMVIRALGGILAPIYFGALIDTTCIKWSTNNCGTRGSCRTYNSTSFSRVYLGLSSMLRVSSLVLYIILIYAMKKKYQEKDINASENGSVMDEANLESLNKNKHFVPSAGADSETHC

[5] = in vitro; details: human
Experimental: as §2

[6] = Multidose clinical study of biweekly HSK7653 IR tablets in T2DM patients (CTR20182505): pharmacokinetics; type: in vivo, human; details: biweekly administration of IR tablets
[7] = target: T2, OAT3 (Homo sapiens, UniProt Q8TCC7); assay: Preclinical transporter substrate assessment (unpublished); type: in vitro ADME
T2 sequence (Q8TCC7 1-542): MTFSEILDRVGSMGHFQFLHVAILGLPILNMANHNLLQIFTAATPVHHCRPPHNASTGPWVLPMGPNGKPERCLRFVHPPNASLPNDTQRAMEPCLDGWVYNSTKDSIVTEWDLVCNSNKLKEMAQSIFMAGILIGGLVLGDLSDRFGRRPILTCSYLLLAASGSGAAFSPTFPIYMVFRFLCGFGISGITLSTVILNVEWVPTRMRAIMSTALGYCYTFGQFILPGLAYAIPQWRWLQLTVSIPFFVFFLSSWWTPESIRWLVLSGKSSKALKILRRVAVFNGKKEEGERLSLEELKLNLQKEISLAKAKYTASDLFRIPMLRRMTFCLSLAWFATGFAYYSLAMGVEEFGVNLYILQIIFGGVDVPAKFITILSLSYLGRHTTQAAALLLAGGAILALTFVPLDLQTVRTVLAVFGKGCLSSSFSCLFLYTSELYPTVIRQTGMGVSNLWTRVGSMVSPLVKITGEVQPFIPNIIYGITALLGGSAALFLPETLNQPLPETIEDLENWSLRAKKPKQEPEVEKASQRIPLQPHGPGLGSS

[8] = Particle size distribution of the API (laser diffraction); type: physicochemical; details: dry method
Experimental: The determination was performed in a dry method with a Scirocco dry powder feeder, and the air was used as the dispersion agent ([Tari et al., 2015]). Meanwhile, the analysis results, d (0.1), d (0.5) and d (0.9) (defined as the diameter where 10%, 50% and 90% of population lies below this value), were directly output.

[9] = target: MATE2-K (Homo sapiens, UniProt Q86VL8); assay: Preclinical transporter substrate assessment (unpublished); type: in vitro ADME
[10] = target: T3, breast cancer resistance protein (Homo sapiens, UniProt Q9UNQ0); assay: as above; type: in vitro ADME
T3 sequence (Q9UNQ0 1-655): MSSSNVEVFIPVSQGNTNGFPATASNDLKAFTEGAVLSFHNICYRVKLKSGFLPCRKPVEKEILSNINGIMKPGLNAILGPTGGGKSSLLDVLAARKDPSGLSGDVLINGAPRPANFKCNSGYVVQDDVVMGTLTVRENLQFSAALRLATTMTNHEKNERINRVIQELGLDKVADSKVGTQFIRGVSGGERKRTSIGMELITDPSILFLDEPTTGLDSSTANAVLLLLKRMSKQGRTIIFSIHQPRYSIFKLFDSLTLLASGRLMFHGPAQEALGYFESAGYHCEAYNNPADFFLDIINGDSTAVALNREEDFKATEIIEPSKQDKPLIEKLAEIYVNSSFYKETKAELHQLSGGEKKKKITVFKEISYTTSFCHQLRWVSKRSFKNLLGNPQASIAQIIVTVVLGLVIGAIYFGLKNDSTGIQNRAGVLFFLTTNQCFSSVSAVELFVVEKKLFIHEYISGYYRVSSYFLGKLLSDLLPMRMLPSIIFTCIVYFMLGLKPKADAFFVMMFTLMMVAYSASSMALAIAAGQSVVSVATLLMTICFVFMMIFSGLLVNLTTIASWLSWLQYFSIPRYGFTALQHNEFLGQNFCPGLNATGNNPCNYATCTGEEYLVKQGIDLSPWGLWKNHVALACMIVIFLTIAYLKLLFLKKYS

Chain of MATE2-K (Q86VL8 1-566 isoform Q86VL8-3, species assumed): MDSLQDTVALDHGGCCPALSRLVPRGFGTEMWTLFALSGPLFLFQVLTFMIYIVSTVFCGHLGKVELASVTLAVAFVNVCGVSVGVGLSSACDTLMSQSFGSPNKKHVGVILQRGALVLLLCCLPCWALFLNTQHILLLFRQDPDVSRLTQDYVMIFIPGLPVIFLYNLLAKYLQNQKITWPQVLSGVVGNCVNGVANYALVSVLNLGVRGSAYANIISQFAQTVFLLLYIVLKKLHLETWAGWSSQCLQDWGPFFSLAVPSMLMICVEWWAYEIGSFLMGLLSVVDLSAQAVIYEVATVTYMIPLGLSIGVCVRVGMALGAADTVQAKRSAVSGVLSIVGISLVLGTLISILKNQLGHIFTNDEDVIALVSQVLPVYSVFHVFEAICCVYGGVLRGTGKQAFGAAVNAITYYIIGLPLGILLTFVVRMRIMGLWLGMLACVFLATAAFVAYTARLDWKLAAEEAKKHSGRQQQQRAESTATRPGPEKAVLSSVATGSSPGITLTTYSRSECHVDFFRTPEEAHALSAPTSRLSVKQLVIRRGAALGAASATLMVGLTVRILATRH

Fasted Dissolution (%) ([1]; time 0.167 h): 70.52% | Fasted Dissolution (%) ([1]; time 0.333 h): 95.97% | Fasted Dissolution (%) ([1]; time 0.50 h): 100.0% | logP [2]: 1.42 | pKa ([2]; Monoprotic base): 6.75 | Metabolic stability in human liver microsomes [3]: very stable | Transporter substrate assessment [4]: not a common transport substrate | half-life at 0.05 μM ([5]; primary human plated hepatocytes): 12.2 days | hepatocyte CLint at 0.05 μM ([5]; primary plated hepatocytes (cryopreserved, 10 donors mixed)): 0.056 µL/min/1e6 cells | Accumulation [6]: no accumulation | Transporter substrate assessment [7]: not a common transport substrate | d (0.1) [8]: 1.313 μm | d (0.5) [8]: 3.288 μm | d (0.9) [8]: 8.163 μm | Transporter substrate assessment [9]: not a common transport substrate | Transporter substrate assessment [10]: not a common transport substrate
Structure (SMILES): CS(=O)(=O)n1cc2c(n1)CN([C@@H]1C[C@H](N)[C@@H](c3cc(F)ccc3F)O[C@@H]1C(F)(F)F)C2 [HSK7653]
